Measurements from PubChem BioAssay AID504669 (Sanford-Burnham Center for Chemical Genomics, 2011).

What follows are molecules tested against Breast cancer type 1 susceptibility protein (Homo sapiens) + BRCA1-associated RING domain protein 1 (Homo sapiens) (UniProt P38398+Q99728) (assay: inhibition of Brca1/Bard1 split-luciferase complementation, dose response, counter-screen for Mdm2/MdmX interaction inhibitor project, cell-based, luminescence (AID 504669)). Details: SaOS-2 Brca1/Bard1 split-luciferase complementation.
Sequence of Breast cancer type 1 susceptibility protein (Homo sapiens) + BRCA1-associated RING domain protein 1 (Homo sapiens) (P38398 whole entry, looked up, the tested form may be a part): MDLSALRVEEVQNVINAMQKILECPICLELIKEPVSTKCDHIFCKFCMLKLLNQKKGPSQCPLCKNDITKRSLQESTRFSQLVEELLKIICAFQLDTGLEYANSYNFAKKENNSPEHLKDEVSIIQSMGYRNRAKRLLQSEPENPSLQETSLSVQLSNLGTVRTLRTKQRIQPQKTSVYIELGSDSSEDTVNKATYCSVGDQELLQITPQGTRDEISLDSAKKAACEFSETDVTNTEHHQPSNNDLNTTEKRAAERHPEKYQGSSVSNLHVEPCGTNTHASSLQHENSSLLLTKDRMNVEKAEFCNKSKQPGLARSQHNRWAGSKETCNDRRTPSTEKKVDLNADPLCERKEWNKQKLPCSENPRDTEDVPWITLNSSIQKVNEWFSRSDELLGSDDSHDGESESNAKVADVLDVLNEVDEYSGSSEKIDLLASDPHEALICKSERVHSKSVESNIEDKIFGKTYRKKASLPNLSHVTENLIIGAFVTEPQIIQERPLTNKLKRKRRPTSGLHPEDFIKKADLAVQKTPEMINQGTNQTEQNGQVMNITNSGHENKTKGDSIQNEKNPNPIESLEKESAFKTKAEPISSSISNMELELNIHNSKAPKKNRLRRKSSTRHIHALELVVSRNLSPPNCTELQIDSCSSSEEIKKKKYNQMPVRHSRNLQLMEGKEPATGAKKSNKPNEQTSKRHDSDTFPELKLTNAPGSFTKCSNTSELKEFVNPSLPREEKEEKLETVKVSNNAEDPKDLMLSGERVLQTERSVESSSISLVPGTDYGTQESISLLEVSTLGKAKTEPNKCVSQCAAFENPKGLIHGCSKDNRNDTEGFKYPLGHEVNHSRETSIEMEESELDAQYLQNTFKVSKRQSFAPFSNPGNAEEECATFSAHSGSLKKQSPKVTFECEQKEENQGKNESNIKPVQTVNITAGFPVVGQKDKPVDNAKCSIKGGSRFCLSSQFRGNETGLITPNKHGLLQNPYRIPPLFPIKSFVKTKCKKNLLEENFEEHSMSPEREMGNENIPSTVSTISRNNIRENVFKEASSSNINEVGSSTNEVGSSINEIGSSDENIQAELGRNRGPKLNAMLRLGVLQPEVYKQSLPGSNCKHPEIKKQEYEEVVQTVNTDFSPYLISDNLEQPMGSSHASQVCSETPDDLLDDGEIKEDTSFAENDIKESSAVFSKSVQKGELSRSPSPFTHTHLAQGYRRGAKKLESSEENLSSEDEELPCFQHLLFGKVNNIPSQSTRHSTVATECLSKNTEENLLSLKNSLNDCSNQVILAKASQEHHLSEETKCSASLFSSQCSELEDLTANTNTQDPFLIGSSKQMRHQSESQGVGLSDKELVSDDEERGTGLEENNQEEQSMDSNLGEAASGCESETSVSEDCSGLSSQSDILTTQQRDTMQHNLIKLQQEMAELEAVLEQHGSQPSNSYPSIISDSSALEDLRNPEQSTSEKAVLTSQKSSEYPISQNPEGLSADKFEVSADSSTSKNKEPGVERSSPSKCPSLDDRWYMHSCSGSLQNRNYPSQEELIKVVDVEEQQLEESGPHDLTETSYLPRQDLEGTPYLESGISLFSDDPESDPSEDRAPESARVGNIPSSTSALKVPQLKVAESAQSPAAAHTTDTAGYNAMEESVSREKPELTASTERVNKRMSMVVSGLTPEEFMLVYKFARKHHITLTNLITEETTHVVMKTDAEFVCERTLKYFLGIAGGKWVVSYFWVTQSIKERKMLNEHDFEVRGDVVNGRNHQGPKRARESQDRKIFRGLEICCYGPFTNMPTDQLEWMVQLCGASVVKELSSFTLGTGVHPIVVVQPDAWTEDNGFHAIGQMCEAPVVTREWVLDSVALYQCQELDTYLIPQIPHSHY
Sequence of Breast cancer type 1 susceptibility protein (Homo sapiens) + BRCA1-associated RING domain protein 1 (Homo sapiens) (Q99728 whole entry, looked up, the tested form may be a part): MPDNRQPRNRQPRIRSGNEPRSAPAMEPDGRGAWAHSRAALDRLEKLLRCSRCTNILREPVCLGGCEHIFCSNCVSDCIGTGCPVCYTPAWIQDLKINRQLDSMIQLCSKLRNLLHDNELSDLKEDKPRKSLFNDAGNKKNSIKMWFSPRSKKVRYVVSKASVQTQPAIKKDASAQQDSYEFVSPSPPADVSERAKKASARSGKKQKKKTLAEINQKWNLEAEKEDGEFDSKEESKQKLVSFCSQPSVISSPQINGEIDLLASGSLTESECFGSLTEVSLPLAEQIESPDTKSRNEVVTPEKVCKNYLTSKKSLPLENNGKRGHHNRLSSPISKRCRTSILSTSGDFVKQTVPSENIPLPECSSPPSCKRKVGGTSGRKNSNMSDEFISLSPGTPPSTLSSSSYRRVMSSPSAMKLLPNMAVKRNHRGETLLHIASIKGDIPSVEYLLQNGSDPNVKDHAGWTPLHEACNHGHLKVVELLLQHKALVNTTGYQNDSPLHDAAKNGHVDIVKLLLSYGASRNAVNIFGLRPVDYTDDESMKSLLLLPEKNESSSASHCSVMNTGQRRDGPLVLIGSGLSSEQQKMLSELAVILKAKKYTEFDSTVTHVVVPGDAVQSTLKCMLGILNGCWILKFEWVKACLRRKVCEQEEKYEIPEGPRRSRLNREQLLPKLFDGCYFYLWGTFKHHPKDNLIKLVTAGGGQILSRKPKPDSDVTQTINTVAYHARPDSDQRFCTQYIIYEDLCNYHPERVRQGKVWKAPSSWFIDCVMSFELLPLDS

IC50 | Compound
12.3 µM | Cn1nc([N+](=O)[O-])nc1Sc1nnc(-c2ccccc2)o1
4.37 µM | O=[N+]([O-])c1ccccc1S(=O)(=O)Nc1cccc2cccnc12
14.3 µM | CCOC(=O)c1ccc(Nc2nc(N)c3cc(OC)c(OC)cc3n2)cc1
4.85 µM | CC(=O)c1ccc(-c2ccc(C(=O)Nc3nc(-c4ccccn4)cs3)o2)cc1
5.59 µM | Cc1nc(NC2=NCN(CCCN3CCOCC3)CN2)nc2c(C)cccc12
0.00353 µM | O=c1oc2ccccc2cc1-c1cn(-c2ccccc2)c(=S)[nH]1
3.9 µM | CCOC(=O)/C=C/C(=O)OCC(=O)NC(c1ccccc1)c1ccccc1

The next lines start with the molecule.

Compound | IC50
COc1ccc(-c2cc3c(=O)n(CC(=O)NCCCN4CCC(N5CCCCC5)CC4)nc(C)n3n2)cc1 | 10.6 µM
CCOc1cc(N2CCOCC2)c(OCC)cc1NC(=O)COc1cccc2cccnc12 | 5.07 µM
COCCn1c(C)cc(C2=NNC(=Nc3ccccc3F)SC2)c1C | 0.493 µM
O=C(/C=C/c1c(F)cccc1Cl)c1ccc(O)cc1 | 6.64 µM
CCN1C/C(=C/c2ccc(OC)c(O)c2)C(=O)/C(=C/c2ccc(OC)c(O)c2)C1 | 9.78 µM
COc1ccc2c(c1)C1(Nc3ccccc3-c3nc4ccccc4n31)C(=O)N2C (stereo not given) | 1.18 µM
CC1(C)C(=O)Nc2ccccc2N1C(=O)Cn1ncc(Cl)c(Cl)c1=O | 8.39 µM
CC(C)c1cccc(O)c(=O)c1 | 3.89 µM
C/C(=N\Nc1cc(C)nc(-c2ccccc2O)n1)c1ccccc1O | 5.35 µM
O=C(CN1CCCc2ccccc21)N/N=C/c1c(O)ccc2ccccc12 | 1.97 µM
CCN(CC)S(=O)(=O)c1ccc(NC(=O)c2cccnc2Cl)c(NC(=O)c2cccnc2Cl)c1 | 10.1 µM
Cc1cccn2c(=O)c3cc(C(=O)NCCc4ccccc4)c(=N)n(Cc4ccco4)c3nc12 | 4.13 µM
COc1cc(-c2nc(-c3ccc(NC(=O)c4ccc5c(c4)OCO5)cc3)no2)cc(OC)c1OC | 13.4 µM
